From US20050124634A1, “1,4-dihydropyridine compounds, pharmaceutical compositions, and methods for the treatment of cardiovascular disease” (MYOGEN, INC., priority 2003, published 2005)

Each molecule was assayed on α-MyHC protein levels (assay: α-MyHC cytoblot assay in neonatal rat ventricular myocytes (NRVM)). Details: 10 mM Cpd; NRVM, 3 days.
Type: cell-based
Description: FIG. 1 Concentration-dependent effect of Compound 1 on α-MyHC protein levels in the cytoblot assay. NRVM are cultured for 3 days in serum-free medium in the presence of differing amounts of Compound 1. At the end of the culture period, NRVM are fixed and analyzed for α-MyHC protein levels using the BA-G5 monoclonal antibody specific for α-MyHC. Results are collected as RLU using a Packard Fusion Plate reader, and normalized to the signal from samples cultured in the absence of compound (control, set to 100%).
Preparation and culture of neonatal rat ventricular myocytes (NRVM) was performed by removing hearts from 1-3 day old rat neonatal pups, along with the atria and lungs. The ventricles were cut into smaller pieces and digested 3 times with collagenase for 20-30 min at 37° C. The myocytes were then separated from other cell types using a Percoll gradient. The myocyte layer was collected, washed 2 times, and plated on tissue culture grade 10 cm Petri dishes for 1-2 hrs. The non-adherent cells (myocytes) were removed and plated in Costar clear view 96 well plates coated with 0.2% gelatin for at least 2 hrs. The gelatin solution was removed, and the myocytes were resuspended in DMEM high glucose media (Mediatech) containing 10% charcoal/dextran treated FBS (Hyclone) and 1% Penicillin-Streptomycin-Glutamine (PSG, Gibco). Ten thousand NRVM were plated per well in a 100 μl volume, and incubated overnight at 37° C. in 5% CO2 in air. The following day, the media was replaced with 100 μl of serum-free DMEM high glucose medium supplemented with PSG and 0.3% Nutridoma-SP (Roche).
Compounds were reconstituted in DMSO at 30 mM, and aliquots were stored at −20° C. A 1:1000 dilution was prepared in serum-free DMEM medium supplemented with PSG and 0.3% Nutridoma, and sonicated for 5 min at room temperature. After sonication, additional 3 fold dilutions were prepared in the same medium. Diluted compound was then added to the NRVM cultures in a volume of 100 μl. A 100 mM thyroid hormone stock solution (T3, Calbiochem) was prepared in 100 mM NaOH and added at a final concentration of 3 nM in DMEM medium supplemented with PSG and 0.3% Nutridoma-SP (Roche). NRVM were cultured for 3 days before detection of α-myosin heavy chain (α-MyHC) protein levels in the cytoblot assay.
For the α-MyHC cytoblot assay, NRVM cultures were analyzed for α-MyHC protein levels after 3 days of incubation. NRVM were washed 2 times with PBS, fixed with methanol for 30 min at 4° C., and washed an additional 2 times with PBS. Blocking solution consisting of PBS with 1% bovine serum albumin (BSA, Fisher Biotech) was added for 1 hr at room temperature before addition of a saturating amount of supernatant containing an α-MyHC specific antibody for 60 min at room temperature (BA-G5 hybridoma, ATTC). Two washes were performed with PBS/1% BSA, and a 1:500 dilution of HRP-goat anti-mouse IgG (Southern Biotech) diluted in PBS/1% BSA was added for 60 min at room temperature. Excess antibody was removed with 3 PBS washes, and a chemiluminescent substrate was added (Pierce SuperSignal West Pico Chemiluminscent Substrate) for 5 min before quantitation on a Packard Fusion Plate Reader.
As shown above in Table 1, Compound 1 increased α-MyHC protein levels as determined by an α-MyHC cytoblot assay. Compound 1 was added to NRVM at concentration ranging from 3 nM to 30 μM. After 3 days of incubation with NRVM, α-MyHC protein levels were detected in the cytoblot assay and quantitated (FIG. 1). […] An increase in α-MyHC protein levels was first detected beginning at 30 nM, with a maximal response observed at 3 μM. In six independent experiments, the concentration of Compound 1 that gave a half-maximal response was on average 60 nM.

Which “% increase of a-MyHC over baseline at 10 mM Cpd” value (shortened to “% increase of a-MyHC”) does the source give for `CC(=O)C1=C(C)NC(SCC(=O)c2cccc([N+](=O)[O-])c2)=C(C#N)C1c1cccc(C)c1` (racemic) [Compound 2] here?
The value was 95%.

`CC(=O)C1=C(C)NC(SCC(=O)c2cc(Cl)ccc2Cl)=C(C#N)C1c1ccccc1Cl` (racemic) [Compound 3] was tested. Which “% increase of a-MyHC” value did it give?
The value was 314%.

With `CC(=O)C1=C(C)NC(SCC(=O)c2ccccc2Cl)=C(C#N)C1c1ccccc1Cl` (racemic) [Compound 4] as the molecule, how does the “% increase of a-MyHC” value read?
Its value is 135%.

With `CC(=O)C1=C(C)NC(SCC(=O)c2ccc(Cl)cc2)=C(C#N)C1c1ccccc1Cl` (racemic) [Compound 5] as the molecule, how does the “% increase of a-MyHC” value read?
The value was 52%.

Which “% increase of a-MyHC” value does the source give for `CC(=O)C1=C(C)NC(SCC(=O)c2ccc(Br)cc2)=C(C#N)C1c1ccccc1Cl` (racemic) [Compound 6] here?
Its value is 53%.

`CC(=O)C1=C(C)NC(SCC(=O)c2ccc(Cl)c(Cl)c2)=C(C#N)C1c1ccc(Cl)cc1` (racemic) [Compound 7] was tested. Which “% increase of a-MyHC” value did it give?
The value was 43%.

`CC(=O)C1=C(C)NC(SCC(=O)c2ccc(Cl)cc2Cl)=C(C#N)C1c1ccc(Cl)cc1` (racemic) [Compound 8] was tested. Which “% increase of a-MyHC” value did it give?
The value was 29%.

With `CC(=O)C1=C(C)NC(SCC(=O)c2ccccc2Cl)=C(C#N)C1c1ccc(Cl)cc1` (racemic) [Compound 9] as the molecule, how does the “% increase of a-MyHC” value read?
Its value is 80%.

`CC(=O)C1=C(C)NC(SCC(=O)c2ccc(Cl)c(Cl)c2)=C(C#N)C1c1ccc(F)cc1` (racemic) [Compound 10] was tested. Which “% increase of a-MyHC” value did it give?
The value was 88%.

Which “% increase of a-MyHC” value does the source give for `CC(=O)C1=C(C)NC(SCC(=O)c2ccc(Cl)cc2Cl)=C(C#N)C1c1ccc(F)cc1` (racemic) [Compound 11] here?
Its value is 51%.

With `CC(=O)C1=C(C)NC(SCC(=O)c2ccc(Br)cc2)=C(C#N)C1c1cccc([N+](=O)[O-])c1` (racemic) [Compound 12] as the molecule, how does the “% increase of a-MyHC” value read?
Its value is 34%.

With `CC(=O)C1=C(C)NC(SCC(=O)c2ccc(Cl)c(Cl)c2)=C(C#N)C1c1ccccc1` (racemic) [Compound 13] as the molecule, how does the “% increase of a-MyHC” value read?
The value was 95%.

Which “% increase of a-MyHC” value does the source give for `CC(=O)C1=C(C)NC(SCC(=O)c2ccc([N+](=O)[O-])cc2)=C(C#N)C1c1ccccc1Cl` (racemic) [Compound 14] here?
The value was 24%.

Which “% increase of a-MyHC” value does the source give for `CC(=O)C1=C(C)NC(SCC(=O)c2ccc(Cl)cc2Cl)=C(C#N)C1c1ccccc1` (racemic) [Compound 15] here?
Its value is 81%.

How did the “% increase of a-MyHC” value turn out when `CC(=O)C1=C(C)NC(SCC(=O)c2cccc(Br)c2)=C(C#N)C1c1ccccc1` (racemic) [Compound 16] was run?
Its value is 143%.

Which “% increase of a-MyHC” value does the source give for `CC(=O)C1=C(C)NC(SCC(=O)c2ccc(Cl)cc2)=C(C#N)C1c1ccccc1` (racemic) [Compound 17] here?
The value was 29%.

Which “% increase of a-MyHC” value does the source give for `CC(=O)C1=C(C)NC(SCC(=O)c2ccc(F)cc2)=C(C#N)C1c1ccccc1` (racemic) [Compound 18] here?
The value was 37%.

Which “% increase of a-MyHC” value does the source give for `CC(=O)C1=C(C)NC(SCC(=O)c2ccccc2)=C(C#N)C1c1ccccc1` (racemic) [Compound 19] here?
The value was 71%.

`CC(=O)C1=C(C)NC(SCC(=O)c2ccc(Cl)c(Cl)c2)=C(C#N)C1c1cccc(C)c1` (racemic) [Compound 20] was tested. Which “% increase of a-MyHC” value did it give?
Its value is 79%.

Which “% increase of a-MyHC” value does the source give for `CC(=O)C1=C(C)NC(SCC(=O)c2ccc(Cl)c(Cl)c2)=C(C#N)C1c1ccccc1Cl` (racemic) [Compound 21] here?
Its value is 126%.

Which “% increase of a-MyHC” value does the source give for `CC(=O)C1=C(C)NC(SCC(=O)c2ccc(Cl)cc2Cl)=C(C#N)C1c1ccccc1Cl` (racemic) [Compound 22] here?
Its value is 81%.

How did the “% increase of a-MyHC” value turn out when `CC(=O)C1=C(C)NC(SCC(=O)c2cc(Cl)ccc2Cl)=C(C#N)C1c1ccc(Br)cc1` (racemic) [Compound 23] was run?
The value was 70%.

For `CCc1ccc(C2C(C#N)=C(SCC(=O)c3cccc([N+](=O)[O-])c3)NC(C)=C2C(C)=O)cc1` (racemic) [Compound 24], which “% increase of a-MyHC” value is on record?
Its value is 130%.

How did the “% increase of a-MyHC” value turn out when `CC(=O)C1=C(C)NC(SCC(=O)c2cccc([N+](=O)[O-])c2)=C(C#N)C1c1ccc(Cl)cc1` (racemic) [Compound 25] was run?
Its value is 139%.
